{
  "source": "patent US20230000089A1",
  "about": "“COMPOSITION ENRICHED IN POLYPHENOLS AND FLAVONOIDS FOR USE AS BIOSTIMULANT AND ANTIMICROBIAL FOR AGRICULTURE APPLICATIONS” (BOTANITEC SPA, priority 2019, published 2023)",
  "test_in_all_cases": "Inhibition halo",
  "format_in_all_cases": "cell-based",
  "conditions_in_all_cases": "positive control antibiotic 0.1 g/L",
  "key": {"Staphylococcus aureus": {"tested_on": "Staphylococcus aureus", "procedure": "(§1) Routine experiments were performed comparing the inhibition halos, using an antibiotic as a positive control: carbamycin 0.1 g/L for Bacillus sp; chloramphenicol 0.1 g/L for Enterobacter aerogenes; and, ampicillin 0.1 g/L. for Salmonella sp, Staphylococcus aureus and Escherichia coli as shown in Table 7 below."}, "Salmonella sp": {"tested_on": "Salmonella sp", "procedure": "as §1"}, "Escherichia coli": {"tested_on": "Escherichia coli", "procedure": "FIG. 7. Inhibitory effect of the composition of the invention on Escherichia coli.\nas §1"}, "Enterobacter aerogenes": {"tested_on": "Enterobacter aerogenes", "procedure": "as §1"}, "Bacillus sp": {"tested_on": "Bacillus sp", "procedure": "as §1"}},
  "data": [
    {"compound": "CC1(C)S[C@@H]2[C@H](NC(=O)[C@H](N)c3ccccc3)C(=O)N2[C@H]1C(=O)O", "note": "[ampicillin]", "values": [
      {"measurement": "Inhibition halo", "setting": "Staphylococcus aureus", "result": 25, "unit": "mm"},
      {"measurement": "Inhibition halo", "setting": "Salmonella sp", "result": 28, "unit": "mm"},
      {"measurement": "Inhibition halo", "setting": "Escherichia coli", "result": 52, "unit": "mm"}
    ]},
    {"compound": "O=C(N[C@H](CO)[C@H](O)c1ccc([N+](=O)[O-])cc1)C(Cl)Cl", "note": "[chloramphenicol]", "values": [
      {"measurement": "Inhibition halo", "setting": "Enterobacter aerogenes", "result": 50, "unit": "mm"}
    ]},
    {"compound": "carbamycin", "values": [
      {"measurement": "Inhibition halo", "setting": "Bacillus sp", "result": 31, "unit": "mm"}
    ]}
  ]
}
